Results on 1 compound are retold here after US20180177724A1, “SITE-TARGETED NANO-LIPOSOMAL NITROGLYCERIN THERAPEUTICS” (The Regents of the University of California, priority 2015, published 2018).

For series [1], the system named is isolated sheep pulmonary arteries. Description: Pulmonary artery ring isometric tension: NTG-induced vasorelaxation after pretreatment. On the procedure: All animal procedures were in accordance with the Animal Welfare Act, the Guiding Principles in the Care and Use of Animals approved by the Council of the American Physiological Society, the National Institutes of Health Guide for the Care and Use of Laboratory Animals, and Loma Linda University Institutional Animal Care and Use Committee (IACUC). Pregnant ewes were anesthetized with ketamine (10 mg/kg, IV) and midazolam (5 mg/kg, IV) and anesthesia maintained with inhalation of 1-3% isofluranein O2 throughout surgery as required. Ewes and Fetuses were euthanized with an overdose of Euthasol (pentobarbital sodium, 100 mg/kg) and phenytoin sodium (10 mg/kg; Virbac, Ft. Worth, Tex.).
To assess arterial vasorelaxation in response to NTG treatment, pulmonary arteries (4th-5th order) were harvested from newborn fetal sheep (gestational period between 138-141 days), dissected free of parenchyma and cut into 5 mm long rings (at least 8 per condition) in ice-cold HEPES buffer (Sigma Aldrich, USA). […] Following treatment, rings were mounted onto tungsten wires under 0.5 g of resting tension in organ baths containing KHB, gassed with 95% O2-5% CO2, and maintained at 37° C. Arterial rings were rinsed once with KHB, allowed to equilibrate for at least 30 minutes, and re-tensioned prior to addition of 125 mM KCl (Sigma Aldrich, USA) to ensure rings were still functional. Rings were rinsed three times to remove KCl, allowed to relax, and preconstricted with 10 μM Serotonin (Tocris Bioscience, USA) to achieve 100% contraction. Rings were then exposed to increasing concentrations of free NTG (1 nM to 100 μM) and subsequent recordings of concentration-response curves were acquired using a force displacement transducer (AD Instruments, New Zealand) and analyzed using Prism (Graphpad Software Inc).

Series [2] deals with endothelial NO production. In words: Intracellular NO by DAF-FM diacetate fluorescence. In kind it is cell-based, human. The settings on record: NTG 5 μM. As for the experimental part:
(§1) Two independent methods were used to measure the amount of NO produced by ECs. In the first method, ECs were treated overnight with L-NIO (5 mM)±NTG (5 μM) or NTG-NL (10 μg/mL), followed by incubation with a NO-sensitive fluorescent dye DAF-FM diacetate (2 μM; Life Technologies, USA) for 20 minutes at 37° C. Following dye loading, ECs were again treated with L-NIO and NTG during a recovery phase for an additional 1 h in regular growth medium. EC culture media was then rinsed once with Krebs-Henseleit Buffer (KHB) containing 125 mM NaCl, 4.74 mM KCl, 2.5 mM CaCl2, 1.2 mM KH2PO4 1.2 mM MgSO4, 5 mM NaHCO3 and 10 mM Glucose (Sigma Aldrich, USA), replaced with fresh KHB and immediately subjected to live cell fluorescence imaging using Nikon Eclipse Ti microscope. At least 30 cells per condition were analyzed for total cell fluorescence using ImageJ software (NIH). For the second method, a Nitric Oxide Analyzer (NOA; Sievers, USA) was used to measure EC-secreted NO in culture medium. For this measurement, confluent ECs were treated overnight with either L-NIO (5 mM)±NTG (5 μM) or NTG alone, followed by sequential 1 h incubations with KHB without and with L-NIO±NTG at 37° C. KHB conditioned medium (4 replicates per condition) was then collected and analyzed using NOA.

For series [3], the system named is endothelial mitochondrial superoxide. In words: Endothelial mitochondrial superoxide production (MitoSOX). The settings on record: free NTG 100 μM (20-fold above effective dose), L-NIO-treated ECs. In kind it is cell-based, human. As for the experimental part:
ECs were plated at sub-confluence on gelatin-coated MatTek dishes under normal culture conditions and subjected to overnight treatment with either L-NIO (3 mM)±[NTG (5, 25, or 100 μM) or NTG-NL (5, 50 or 100 μg/mL)]. To detect mitochondrial superoxide, ECs were labeled with MitoSOX™ (Life Technologies, USA), a mitochondrial superoxide-sensitive fluorescent dye that is widely used to measure mitochondrial ROS production under various conditions, including NTG treatment. ECs were labeled with MitoSOX™ Red at a final dose of 5 μM in KHB for 10 minutes at 37° C., rinsed three times with KHB to remove excess dye and placed at 37° C. in KHB for an additional 10 minutes prior to live cell imaging. Fluorescence images (six per condition) were acquired using Nikon Eclipse Ti microscope and total cell fluorescence intensity from at least 20 cells was analyzed using ImageJ software.

For series [4] the following is noted: in vivo; cited from earlier work.
The test system of series [5] is U937 monocytic cell adhesion to L-NIO-treated ECs. Description: Monocyte adhesion assay, L-NIO-treated (NO-deficient) ECs. The class given is cell-based, human. Particulars: for U937 cell-EC adhesion after 4 hr treatment: L-NIO. On the procedure: Human microvascular endothelial cells (HMEC-1) were purchased from the Center for Disease Control (CDC) and cultured on gelatin-coated tissue culture dishes in growth medium composed of MCDB-131 (VWR International, USA) supplemented with 10% FBS (Fisherbrand, USA), 2 mM L-Glutamine (Invitrogen, USA), 1× antimycotic/antibiotic mixture (Life Technologies, USA), 10 ng/mL huEGF (Millipore, USA) and 1 μg/mL Hydrocortizone (Sigma Aldrich, USA). Human U937 monocyte cells were purchased from ATCC (Manassas, Va., USA) and cultured in suspension in growth medium composed of RPMI 1640 (Fisherbrand, USA) supplemented with 2 mM L-Glutamine (Invitrogen), 10 mM HEPES (Fisherbrand, USA), 10% FBS (Fisherbrand), antimycotic/antibiotic mixture (Life Technologies, USA), 1 mM sodium pyruvate (Life Technologies, USA) and 4.5 mg/mL glucose (Sigma Aldrich, USA).
After 30 min of monocyte-EC interaction at 37° C., monocyte suspension was removed and the EC monolayers gently rinsed twice with PBS (to remove unbound monocytes) prior to fixation in 1% paraformaldehyde (PFA; Electron Microscopy Sciences, USA). Fluorescent images (10 per condition) of labeled U937 cells were then acquired using a Nikon Eclipse Ti microscope (Nikon, Japan) fitted with a Nikon Digital Sight DS-Qi1Mc camera and the number of adherent monocytes was counted using ImageJ software (NIH).

The subject of series [6] is endothelial NO production. Description: EC-secreted (extracellular) NO by Nitric Oxide Analyzer (NOA). The class given is cell-based, human. The settings on record: NTG 5 μM, L-NIO-treated ECs. On the procedure: as §1
In series [7] the test system is endothelial ICAM-1 clustering. Description: ICAM-1 clustering in U937 cell-EC co-cultures. The class given is cell-based, human. The settings on record: NTG 5 μM. As for the experimental part: ECs were grown to confluence on glass coverslips under normal growth conditions and treated with L-NIO (5 mM)±[NTG (5 μM) or NTG-NL (5 μg/mL)] for 24 h. Next, a monocyte adhesion assay was performed (as described earlier) and the monocyte-EC co-cultures fixed, permeabilized with 0.1% Triton X-100, blocked with 2% bovine serum albumin (BSA; Millipore, USA), and sequentially incubated with primary anti-ICAM-1 mouse antibody (Santa Cruz Biotechnology, USA) and secondary FITC-conjugated DyLight 488 anti-mouse IgG (Vector Labs, USA). To visualize actin microfilaments, monocyte-EC co-cultures were incubated with Alexa Fluor 594-Phalloidin (BD Biosciences, USA). Coverslips were mounted onto glass slides and fluorescence images (15 per condition) were taken using a Nikon Eclipse Ti microscope fitted with a Nikon Digital Sight DS-Qi1Mc camera. ICAM-1 clustering index was determined using ImageJ by normalizing the total monocyte fluorescence (from at least 30 cells) to the background of the surrounding EC cytoplasm.

Molecules are shown by their SMILES. Like-named read-outs stand apart in the source and are kept apart here.

The term IC50 denotes the concentration that inhibits the measured activity by half. By EC50 is commonly meant the concentration that produces a half-maximal response. As for `O=[N+]([O-])OCC(CO[N+](=O)[O-])O[N+](=O)[O-]` [NTG, Nitroglycerin], the IC50 was 0.25 µM in series [1] (Ovis aries, read-out: Mean IC50 of NTG-induced relaxation, arteries pretreated 4 h with free NTG 5 μM); 15 µM in series [1] (Ovis aries, read-out: Mean IC50 of NTG-induced relaxation, arteries pretreated 4 h with free NTG 100 μM); 0.251 µM in series [1] (Ovis aries, read-out: −Log IC50 of NTG-induced relaxation, arteries pretreated 4 h with free NTG 5 μM (converted), mean ± SEM); 15.5 µM in series [1] (Ovis aries, read-out: −Log IC50 of NTG-induced relaxation, arteries pretreated 4 h with free NTG 100 μM (converted), mean ± SEM); 15.5 µM in series [1] (read-out: Mean IC50 of NTG-induced relaxation, arteries pretreated 4 h with free NTG 100 μM). Besides, the “Maximal Relaxation (%)” value worked out at 69 ± 4 % in series [1] (arteries pretreated 4 h with free NTG 5 μM, mean ± SEM) and 66 ± 9% in series [1] (arteries pretreated 4 h with free NTG 100 μM, mean ± SEM). Also, the “recovery of intracellular NO in L-NIO-treated cells” value in series [2] is 79%. In addition, the “increase in mitochondrial superoxide formation” value in series [3] was 2 fold. In addition, the “time of clearance of NTG from bloodstream” value in series [4] was 15 to 30 min. In addition, the “effect on U937 monocytic cell adhesion to ECs” value in series [5] is “dose-dependent inhibition”. In addition, the EC50 in series [5] (Homo sapiens, U-937, read-out: EC50, inhibition of human monocyte adhesion to NO-deficient human microvascular ECs) was 0.64 µM. In series [5] (L-NIO-treated ECs, adhesion back to level of untreated ECs), the “effective anti-inflammatory NTG dose” value came to 5 µM. In addition, the “U937 cell-EC adhesion after 4 hr treatment” value in series [5] (NTG 5 μM) is given as “significant inhibition of U937 cell-EC adhesion”; in series [5] (free NTG 100 μM), “loses its therapeutic effect”. The “loss (decrease) in anti-inflammatory effect at high dose” value in series [5] (free NTG 100 μM, L-NIO-treated ECs) is reported as ~2 fold. Also, the “anti-inflammatory effect of free NTG at the amount equivalent to NTG-NL” value is recorded as “does not produce a significant anti-inflammatory effect” in series [5] (listed as Free NTG) and “failed to produce a significant anti-inflammatory effect” in series [5] (listed as free NTG). In series [6], the “recovery of EC-dependent (extracellular) NO production” value is listed as “complete recovery”. For the same compound, the “effect on ICAM-1 clustering induced by L-NIO” value in series [7] is recorded as “inhibited”.
